# Measured values as given in the RepoRT retention time repository.
# Where a name gives a salt, the structure may show the parent alone.
# Experiment: RP, Restek Raptor Biphenyl, 100 × 2.1 mm, 2.7 µm, 50 °C, 0.4 mL/min, estimated dead time 0.55 min; A: water + 0.1% formic acid, pH 3; B: methanol + 0.1% formic acid, pH 3; gradient (min/%B) 0/5 1.12/5 6.41/99.5 10.01/99.5
# Conditions: stereoisomer not certain
row,Structure (SMILES),LC retention time
1,COC(=O)c1c(Cl)nn(C)c1S(=O)(=O)NC(=O)Nc1nc(OC)cc(OC)n1 [Halosulfuron-methyl],6.42 min
2,CCCCCCCCCCCCCCCCCCCCC(=O)O [Heneicosanoic acid],6.82 min
3,CCCCCCCCCCCCCCCCCCCCCCCCCCC(=O)O [Heptacosanoic Acid],7.05 min
4,CCCCCCCCCCCCCCCCC(=O)O [Heptadecanoic acid],6.6 min
5,CCCCC(O)(Cn1cncn1)c1ccc(Cl)cc1Cl (stereo not given) [Hexaconazole],5.98 min
6,NC(=O)Cc1c[nH]c2ccccc12 [INDOLE-3-ACETAMIDE],3.75 min
7,OCCc1c[nH]c2ccccc12 [INDOLE-3-ETHANOL],4.06 min
8,O=S(=O)(O)Oc1c[nH]c2ccccc12 [INDOXYL SULFATE],2.52 min
9,O=C(O)CCCc1c[nH]c2ccccc12 [Indole-3-butyric acid],4.97 min
10,O=Cc1c[nH]c2ccccc12 [Indole-3-carboxaldehyde],4.24 min
11,O=C(O)c1c[nH]c2ccccc12 [Indole-3-carboxylic acid],4.08 min
12,O=C(O)CCc1c[nH]c2ccccc12 [Indole-3-propionic acid],4.66 min
13,CC(C)C1CCC(Cc2ccc(Cl)cc2)C1(O)Cn1cncn1 (stereo not given) [Ipconazole],6.21 min
14,CC(C)CCCCCCCCCCCCC(=O)O [Isopalmitic acid],6.54 min
15,CC(C)CCCCCCCCCCCCCCC(=O)O [Isostearic acid],6.67 min
16,O=C(O)c1cc(=O)c2ccccc2[nH]1 [Kynurenic acid],3.58 min
17,O=C1O[C@H]([C@@H](O)CO)C(O)=C1O [L-Ascorbic acid],3.46 min
18,N[C@@H](Cc1ccc(O)c(O)c1)C(=O)O [L-DOPA],0.702 min
19,O=C(O)CC[C@H](O)C(=O)O [L-α-Hydroxyglutaric acid disodium salt],0.746 min
20,CCCCCCCCCCCC(=O)OC(CC(=O)[O-])C[N+](C)(C)C [Lauroyl-L-carnitine],5.46 min
21,O=c1[nH]c2c(c(=O)n1C1CCCCC1)CCC2 [Lenacil],5.48 min
22,CCC=CCC=CCC=CCCCCCCCC(=O)O [Linolenic acid],6.53 min
23,O=C(O)CC(O)C(=O)O (stereo not given) [MALATE],0.676 min
24,O=C(O)C(O)c1ccccc1 (stereo not given) [MANDELATE],2.98 min

row,Structure (SMILES),LC retention time
1,Cc1c(=O)c(=O)c2c3c[nH]c4c(C)c(=O)c(=O)c(c5c[nH]c1c52)c43 [MELANIN],5.67 min
2,COc1ccc2[nH]cc(CCNC(C)=O)c2c1 [MELATONIN],4.57 min
3,CSCC1OC(n2cnc3c(N)ncnc32)C(O)C1O (stereo not given) [METHYLTHIOADENOSINE],3.18 min
4,CCCCCCCCCCCCCCCCCCCCCCCCCCCCCC(=O)O [Melissic acid],7.12 min
5,COC(=O)c1ccc(CNS(C)(=O)=O)cc1S(=O)(=O)NC(=O)Nc1nc(OC)cc(OC)n1 [Mesosulfuron-methyl],6.04 min
6,CC1(C)CCC(Cc2ccc(Cl)cc2)C1(O)Cn1cncn1 (stereo not given) [Metconazole],6.09 min
7,CC(C(=O)O)C(=O)O [Methylmalonic acid],0.96 min
8,CCCCCCCCCCCCCC(=O)OC(CC(=O)[O-])C[N+](C)(C)C [Myristoyl-L-carnitine],5.74 min
9,CCC(C)C(=O)NCC(=O)O (stereo not given) [N-(2-Methylbutyryl)glycine],2.83 min
10,O=C(O)CNC(=O)C=Cc1ccccc1 [N-(CINNAMOYL)GLYCINE],4.42 min
11,CC(=O)NC(C)C(=O)O (stereo not given) [N-ACETYLALANINE],1.05 min
12,CC(=O)NC(CC(N)=O)C(=O)O (stereo not given) [N-ACETYLASPARAGINE],0.702 min
13,CC(=O)NC(CC(C)C)C(=O)O (stereo not given) [N-ACETYLLEUCINE],3.63 min
14,CSCCC(NC(C)=O)C(=O)O (stereo not given) [N-ACETYLMETHIONINE],3.04 min
15,CC(=O)NC(Cc1ccccc1)C(=O)O (stereo not given) [N-ACETYLPHENYLALANINE],4.06 min
16,CC(=O)NCCc1c[nH]c2ccc(O)cc12 [N-ACETYLSEROTONIN],3.58 min
17,CC(=O)NC(Cc1c[nH]c2ccccc12)C(=O)O (stereo not given) [N-ACETYLTRYPTOPHAN],4.12 min
18,CC(=O)N[C@@H](CC(=O)O)C(=O)O [N-Acetyl-L-aspartic acid],0.77 min
19,CC(=O)N[C@@H](Cc1ccc(O)cc1)C(=O)O [N-Acetyl-L-tyrosine],2.88 min
20,NC(=O)c1ccc[n+](C2OC(COP(=O)([O-])OP(=O)(O)OCC3OC(n4cnc5c(N)ncnc54)C(OP(=O)(O)O)C3O)C(O)C2O)c1 (stereo not given) [NADP],0.746 min
21,CCCCCCCCC=CCCCCCCCCCCCCCC(=O)O [Nervonic acid],6.93 min
22,CCN(Cc1ccc(Cl)nc1)C(=C[N+](=O)[O-])NC [Nitenpyram],3.63 min
23,CCCCCCCCCCCCCCCCCCC(=O)O [Nonadecanoic acid],6.72 min
24,CC(CC(=O)O)C1CCC2C3CCC4CC(O)CCC4(C)C3CC(O)C12C (stereo not given) [Nor-Desoxycholic Acid],6.24 min

row,Structure (SMILES),LC retention time
1,CC(CCC(=O)O)C1CCC2C3C(=O)CC4CC(O)CCC4(C)C3CCC12C (stereo not given) [Nutriacholic Acid],6.42 min
2,CCCCCCCCCCCCCCCCCCCCCCCCCCCC(=O)O [Octacosanoic acid],7.08 min
3,Cn1c(=O)[nH]c2ncn(C)c2c1=O [PARAXANTHINE],3.54 min
4,CCCCCCCCCCCC=CCCCCC(=O)O [PETROSELINATE],6.63 min
5,CC(=O)Oc1ccccc1 [PHENYL ACETATE],2.46 min
6,O=C(O)Cc1ccccc1 [PHENYLACETATE],2.46 min
7,CC(=O)C1CCC2C3CC=C4CC(OS(=O)(=O)O)CCC4(C)C3CCC12C (stereo not given) [PREGNENOLONE SULFATE],6.51 min
8,c1ncc2[nH]cnc2n1 [PURINE],1.29 min
9,O=C(O)c1ccc[nH]1 [PYRROLE-2-CARBOXYLATE],3.3 min
10,CCCCCCCCCCCCCCCC(=O)O [Palmitic acid],6.54 min
11,CCCCCCCCCCCCCCCCCCCCCCCCC(=O)O [Pentacosanoic Acid],6.98 min
12,CCCCCCCCCCCCCCC(=O)O [Pentadecanoic acid],6.44 min
13,O=C(O)C(=O)Cc1ccccc1 [Phenylpyruvic acid],2.88 min
14,CC(C)CCCC(C)CCCC(C)CCCC(C)CC(=O)O (stereo not given) [Phytanic acid],6.68 min
15,C#CC(C)(C)NC(=O)c1cc(Cl)cc(Cl)c1 [Propyzamide],5.6 min
16,O=C(O)c1cccnc1C(=O)O [QUINOLINATE],1 min
17,Cc1cc2nc3c(=O)[nH]c(=O)nc-3n(CC(O)C(O)C(O)CO)c2cc1C (stereo not given) [RIBOFLAVIN],4.45 min
18,CCCCCCC(O)CC=CCCCCCCCC(=O)O (stereo not given) [Ricinoleic acid],6.18 min
19,CCCCCCSCC(NC(=O)CCC(N)C(=O)O)C(=O)NCC(=O)O (stereo not given) [S-HEXYL-GLUTATHIONE],4.59 min
20,O=C(O)CCCCCCCCC(=O)O [SEBACATE],4.87 min
21,C=CCNC(=O)c1c([Si](C)(C)C)sc(C)c1C [Silthiofam],6 min
22,CCCCCCCCCCCCCCCCCC(=O)O [Stearic acid],6.67 min
